According to the supplement of paper PMC10627819:

Experiments:
Assay in all cases: Bliss interaction score (quartile over a dose matrix) (fitness difference); higher = more antagonism (negative = synergy)
S. aureus DSM 20231 = tested on: S. aureus DSM 20231
Method in brief: (§1)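 Fitness here means normalised growth, inferred for single drugs from the combination data. Growth was OD595 at entry into stationary phase, divided by the plate's robust no-drug mean and capped at 1. The Bliss score is observed minus expected fitness, with the expectation being the product, and its quartiles span technical, biological and donor/recipient replicates.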

S. aureus Newman = tested on: S. aureus Newman
Method in brief: as §1

S. pneumoniae D39V = tested on: S. pneumoniae D39V
Method in brief: as §1

B. subtilis 168 = tested on: B. subtilis 168
Method in brief: as §1
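Also: first quartile when negative (synergy) and third quartile when positive (antagonism).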

Row | SMILES | Bliss interaction score (S. aureus DSM 20231; main component drawn) | Bliss interaction score (S. aureus Newman; main component drawn) | Bliss interaction score (S. pneumoniae D39V; main component drawn) | Bliss interaction score (B. subtilis 168; main component drawn) | Bliss interaction score (S. aureus DSM 20231) | Bliss interaction score (S. aureus Newman) | Bliss interaction score (S. pneumoniae D39V) | Bliss interaction score (B. subtilis 168)
1 | CN(C)C(=O)C(CCN1CCC(O)(c2ccc(Cl)cc2)CC1)(c1ccccc1)c1ccccc1 [Loperamide] + CCCCCCCCCC(=O)N[C@@H]1[C@H]([C@@H]([C@H](O[C@H]1OC2=C3C=C4C=C2OC5=C(C=C(C=C5)[C@H]([C@H]6C(=O)N[C@@H](C7=C(C(=CC(=C7)O)OC8[C@H]([C@H]([C@@H]([C@H](O8)CO)O)O)O)C9=C(C=CC(=C9)[C@H](C(=O)N6)NC(=O)[C@@H]4NC(=O)[C@@H]1C2=CC(=CC(=C2)OC2=C(C=CC(=C2)[C@H](C(=O)N[C@H](CC2=CC(=C(O3)C=C2)Cl)C(=O)N1)N)O)O)O)C(=O)O)O[C@H]1[C@@H]([C@H]([C@@H]([C@H](O1)CO)O)O)NC(=O)C)Cl)CO)O)O [Teicoplanin] | -0.114 | -0.0955 | -0.0953 | 0.0883 |  |  |  | 
2 | CN(C)C(=O)C(CCN1CCC(O)(c2ccc(Cl)cc2)CC1)(c1ccccc1)c1ccccc1 [Loperamide] + CC[C@H]1OC(=O)[C@H](C)C(=O)[C@H](C)[C@@H](O[C@@H]2O[C@H](C)C[C@H](N(C)C)[C@H]2O)[C@](C)(OC)C[C@@H](C)C(=O)[C@H](C)[C@H]2N(CCCCn3cnc(-c4cccnc4)c3)C(=O)O[C@]12C [Telithromycin] |  |  |  |  | 0.0619 | -0.024 | 0.0977 | 0.0814
3 | CN(C)C(=O)C(CCN1CCC(O)(c2ccc(Cl)cc2)CC1)(c1ccccc1)c1ccccc1 [Loperamide] + CN[C@H](CC(C)C)C(=O)N[C@H]1C(=O)N[C@@H](CC(N)=O)C(=O)N[C@H]2C(=O)N[C@H]3C(=O)N[C@H](C(=O)N[C@H](C(=O)O)c4cc(O)cc(O)c4-c4cc3ccc4O)[C@H](O[C@H]3C[C@](C)(N)[C@@H](O)[C@H](C)O3)c3ccc(c(Cl)c3)Oc3cc2cc(c3O[C@@H]2O[C@H](CO)[C@@H](O)[C@H](O)[C@H]2O[C@H]2C[C@](C)(NCc3ccc(-c4ccc(Cl)cc4)cc3)[C@@H](O)[C@H](C)O2)Oc2ccc(cc2Cl)[C@H]1O [Oritavancin] |  |  |  |  | -0.11 | -0.062 | -0.0409 | 0.0335
4 | CN(C)C(=O)C(CCN1CCC(O)(c2ccc(Cl)cc2)CC1)(c1ccccc1)c1ccccc1 [Loperamide] + CO[C@@]12[C@H](COC(N)=O)C3=C(C(=O)C(C)=C(N)C3=O)N1C[C@@H]1N[C@@H]12 [MitomycinC] |  |  |  |  | 0.101 | -0.031 | 0.105 | 0.0277
5 | CN(C)C(=O)C(CCN1CCC(O)(c2ccc(Cl)cc2)CC1)(c1ccccc1)c1ccccc1 [Loperamide] + Oc1cc(Cl)ccc1Oc1ccc(Cl)cc1Cl [Triclosan] |  |  |  |  | -0.0746 | 0.0213 | -0.179 | 0.0255
6 | CCN(CC)CCOC(=O)c1ccc(N)cc1 [Procaine] + C/C(=C\C(=O)OCCCCCCCCC(=O)O)C[C@@H]1OC[C@H](C[C@@H]2O[C@H]2[C@@H](C)[C@H](C)O)[C@@H](O)[C@H]1O [Pseudomonic acid] |  |  |  |  | 0.0122 | 0.0207 | -0.0844 | 0.0611
7 | CCN(CC)CCOC(=O)c1ccc(N)cc1 [Procaine] + CC[C@H]1OC(=O)[C@H](C)C(=O)[C@H](C)[C@@H](O[C@@H]2O[C@H](C)C[C@H](N(C)C)[C@H]2O)[C@](C)(OC)C[C@@H](C)C(=O)[C@H](C)[C@H]2N(CCCCn3cnc(-c4cccnc4)c3)C(=O)O[C@]12C [Telithromycin] |  |  |  |  | -0.0287 | 0.0289 | 0.0708 | -0.0224
8 | CCN(CC)CCOC(=O)c1ccc(N)cc1 [Procaine] + Oc1cc(Cl)ccc1Oc1ccc(Cl)cc1Cl [Triclosan] |  |  |  |  | 0.0864 | -0.0125 | -0.0644 | 0.0507
9 | Cn1nnc(-c2ccc(-c3ccc(N4C[C@H](CO)OC4=O)cc3F)cn2)n1 [Tedizolid] + CCCCCCCCCC(=O)N[C@@H]1[C@H]([C@@H]([C@H](O[C@H]1OC2=C3C=C4C=C2OC5=C(C=C(C=C5)[C@H]([C@H]6C(=O)N[C@@H](C7=C(C(=CC(=C7)O)OC8[C@H]([C@H]([C@@H]([C@H](O8)CO)O)O)O)C9=C(C=CC(=C9)[C@H](C(=O)N6)NC(=O)[C@@H]4NC(=O)[C@@H]1C2=CC(=CC(=C2)OC2=C(C=CC(=C2)[C@H](C(=O)N[C@H](CC2=CC(=C(O3)C=C2)Cl)C(=O)N1)N)O)O)O)C(=O)O)O[C@H]1[C@@H]([C@H]([C@@H]([C@H](O1)CO)O)O)NC(=O)C)Cl)CO)O)O [Teicoplanin] | -0.083 | 0.0811 | 0.295 | 0.065 |  |  |  | 
10 | Cn1nnc(-c2ccc(-c3ccc(N4C[C@H](CO)OC4=O)cc3F)cn2)n1 [Tedizolid] + CC[C@H]1OC(=O)[C@H](C)C(=O)[C@H](C)[C@@H](O[C@@H]2O[C@H](C)C[C@H](N(C)C)[C@H]2O)[C@](C)(OC)C[C@@H](C)C(=O)[C@H](C)[C@H]2N(CCCCn3cnc(-c4cccnc4)c3)C(=O)O[C@]12C [Telithromycin] |  |  |  |  | -0.0684 | -0.0897 | -0.0527 | -0.0463
11 | Cn1nnc(-c2ccc(-c3ccc(N4C[C@H](CO)OC4=O)cc3F)cn2)n1 [Tedizolid] + CN(C)c1cc(NC(=O)CNC(C)(C)C)c(O)c2c1C[C@H]1C[C@H]3[C@H](N(C)C)C(O)=C(C(N)=O)C(=O)[C@@]3(O)C(O)=C1C2=O [Tigecycline] |  |  |  |  | -0.107 | 0.0453 | -0.0764 | -0.0434
